Measurements published in paper PMC4718940, “Preclinical studies of 5-fluoro-2′-deoxycytidine and tetrahydrouridine in pediatric brain tumors” (Journal of Neuro-Oncology, 2015).
Where two headings read alike, the source gives them in different places.

Tests used:
mouse EP neurospheres = experiment: 72 h dose response, CellTiter-Glo, mouse EP neurospheres; type: cell-based; details: Mus musculus, Fig. 2a, read-out: EC50
Experimental: In the Discovery Phase, the initial studies included the screen of a library of 9 compounds against epigenetic regulators at a single concentration and a dose-response on G3 MB, EP, and CPC tumor cells, as well as HEPG2 and BJ (Fig. 1). The library and dose response studies are described in the Supplementary Material.
Briefly, cells (see Supplementary Table S2 for cell identity) were plated in 384-well plates (Corning) in 30 µL of supplemented neurobasal medium by using an automated plate filler (Wellmate, Matrix). After 24 hr, 28 nL of compound was transferred via pin tool, resulting in a final drug concentration of approximately 4 nM to 10 µM. After 72 hr of treatment, CellTiter-Glo reagent (Promega) was added, and the luminescence signal was measured using an automated Envision plate reader (Perkin-Elmer). Luminescence data were normalized by log10-transformation prior to calculating the percentage of inhibition using the following equation: 100 × (negative control mean − compound value)/(negative control mean − positive control mean). Our negative control represents cells treated with 0.1% DMSO with 0% inhibition. Cells treated with 35 µM cycloheximide (G3 MB tumor spheres) or 10 µM panobinostat (EP and CPC cells) were used as positive controls with 100% inhibition. The response of cells to the compounds were normalized to that of the positive controls present in each plate screened, shown in the Y axis of the dose-response curve. […] Unless otherwise reported, the y-axis for each dose response curve in the figures was independently normalized to the range from 0 to 1 and therefore reported as ‘relative growth inhibition’. High through put assay data were analyzed by using our in-house Robust Interpretation of Screening Experiments (RISE) application that was written in Pipeline Pilot (Accelrys, v. 8.5) and R (R Development Core Team).

[1] = system: Patient-derived xenograft of a human G3 medulloblastoma, TB-12-5950; experiment: 72 h dose response, CellTiter-Glo, human G3 MB PDX cells; type: cell-based; details: Fig. 2b
[2] = system: Patient-derived xenograft of a human EP; experiment: 72 h dose response, CellTiter-Glo, human EP PDX cells; type: cell-based; details: Fig. 2b
[3] = system: tumorspheres derived from murine G3 MB, EP, and CPC; experiment: In vitro growth inhibition, all three tumor cell types (summary); type: cell-based; details: Mus musculus, 72 hr
[4] = system: Trp53−/−, Cdkn2c−/− neurospheres; experiment: FdCyd growth inhibition, control neurospheres; type: cell-based, mouse; details: Fig. 2c
G3 MB (Myc1) cells = experiment: FdCyd wash-out experiment, G3 MB; type: cell-based; details: Mus musculus
Experimental: Myc1 and Myc2 G3 MB, EP, and CPC tumor cells (Supplementary Table 1) were plated in 96-well plates. After 24 h, 128 nL of a dilution series of a selected drug was transferred creating a final drug concentration of 0.5–9.3 µM. To assess the optimal exposure time, the drug was removed and replaced with fresh medium after 1, 3, 6, 10, 24, or 72 h (“wash-out”).
(§1) In both experiments, 72 h after drug addition to cells, we added 100 µL of CellTiter-Glo reagent (Promega), and we read the luminescence signal. Data analysis used GraphPad Prism software (Version 5.04).

EP cells = experiment: Effect of deoxycytidine on FdCyd efficacy, 72 h, CellTiter-Glo; type: cell-based; details: Mus musculus; FdCyd alone, 72 h exposure
Experimental: To test the effect of deoxycytidine on FdCyd efficacy, EP cells were plated in 96 well plates. After 24 h, FdCyd was added at final concentrations ranging from 0.1 nM to 50 μM alone or together with fixed concentration of deoxycytidine (Sigma) of 0.0122, 0.195, 6.25 or 100 μM.
as §1

[5] = In vitro plasma protein binding; type: in vitro ADME; details: data not shown, read-out: fu,p (unbound fraction, plasma protein)
[6] = In vitro brain homogenate binding; type: in vitro ADME; details: data not shown, read-out: fu,b (unbound fraction, brain homogenate)
[7] = Cerebral microdialysis, tECF disposition in tumor-bearing CD1 nude mice; type: in vivo; details: mouse, tumor extracellular fluid (dialysate) vs plasma, FdCyd 6 mg/kg with THU 100 mg/kg, read-out: tECF-to-plasma partition coefficient of unbound FdCyd (Kpt,uu), mean ± SD
Experimental: Once a drug passed the Discovery Phase it was moved to the Pre-Clinical Phase, which included PK and PD studies (Fig. 1). The details of the plasma PK and cerebral microdialysis studies are provided in the Supplemental Materials.
Cerebral microdialysis studies were performed in CD1 nude mice orthotopically transplanted with G3 MB, EP, or CPC tumors [,2,6]. Plasma and dialysate samples collected during microdialysis studies were analyzed by using LC-MS/MS to determine drug concentrations. Data obtained from microdialysis performed in individual tumor models were analyzed separately by using a compartmental approach. A model with a tECF compartment that was linked to the plasma compartment by using efflux (CL32) and influx (CL23) clearances was fit to the plasma and tumor ECF concentration-time data. These were obtained from previous plasma PK studies in all tumor models and from each microdialysis by using separate, tumor-specific population NONMEM 7.2.
The tECF-to-plasma partition coefficient of unbound drug (Kpt,uu) was calculated as a ratio of CL23 to CL32. The mean ± SD of individual tECF-to-plasma partition coefficients of unbound FdCyd (Kpt,uu) in CD1 nude mice bearing G3 MB, EP, and CPC were 0.06 ± 0.02, 0.18 ± 0.14, and 0.09 ± 0.04, respectively. […] Inter-animal variability in Kpt,uu, however, was higher in EP tumors than in G3 MB and CPC tumors.The area under plasma concentration-time curve (AUCplasma) was calculated as the ratio of dosage to CL, whereas AUCtECF was calculated as the product of AUCplasma and Kpt,uu.

CPC tumors [8] = experiment: In vivo proliferation, Ki67 immunohistochemistry, CPC
Experimental: (§2) To assess apoptosis and proliferation in vivo, G3 MB, EP, and CPC tumors were isolated from mice 3, 8, or 24 h after treatment with compound or vehicle, fixed in 10 % formalin, and sections were immunostained with antibodies to Caspase 3 (apoptosis) or Ki67 (proliferation).
(§3) In vivo apoptosis and proliferation were performed on G3 MB, EP, and CPC tumors isolated from mice 3, 8, or 24 hr after treatment with compound or vehicle (saline). Tumors were fixed in 10% formalin. Sections (4-micron) were immunostained with antibodies to Caspase 3 (CP229C, BioCare Medical, Concorde, CA) to detect apoptotic cells, or Ki67 (ThermoShandon, RM9106) to detect proliferation. The number of positive cells for each stain was normalized to the total number of cells.
Mice bearing G3 MB, EP, or CPC tumors were harvested 3, 8, or 24 hr after IP injection of vehicle (V) or FdCyd + THU (FdCyd). Fixed brains were sliced and stained for Ki67. The percentage of positive cells was calculated based on total number of cells.

EP tumors = experiment: In vivo apoptosis, Caspase 3 immunohistochemistry, EP
Experimental: as §2, §3
(§4) Mice bearing G3 MB, EP, or CPC tumors were harvested 3, 8, or 24 hr after IP injection of vehicle (V) or FdCyd + THU (FdCyd). Fixed brains were sliced and stained for caspase 3. The percentage of positive cells was calculated based on total number of cells. SD= standard deviation.

CPC tumors [9] = experiment: In vivo apoptosis, Caspase 3 immunohistochemistry, CPC
Experimental: as §2, §3, §4

Compound `Nc1nc(=O)n([C@H]2C[C@H](O)[C@@H](CO)O2)cc1F` [FdCyd, 5-fluoro-2′-deoxycytidine] has an EC50 (mouse EP neurospheres) of 4 nM, an EC50 [1] of 1 nM and an EC50 [2] of 8.3 nM. For the same compound, the EC50 [3] was 1 to 6 nM, the “sensitivity to FdCyd (growth inhibition)” value [4] was “showed sensitivity” and the EC50 (G3 MB (Myc1) cells; 1 h exposure then wash-out, read at 72 h, read-out: EC50 after 1 h FdCyd exposure) was 8 ± 2 nM. It also gave an EC50 (G3 MB (Myc1) cells; 72 h, wash-out, 1st of 4 values listed for the remaining time points (3, 6, 10, 24, 72 h), read-out: EC50, longer exposure) of 5 nM, an EC50 (G3 MB (Myc1) cells; 72 h, wash-out, 2nd of 4 values listed for the remaining time points (3, 6, 10, 24, 72 h), read-out: EC50, longer exposure) of 4 nM and an EC50 (G3 MB (Myc1) cells; 72 h, wash-out, 3rd of 4 values listed for the remaining time points (3, 6, 10, 24, 72 h), read-out: EC50, longer exposure) of 2.3 nM. For the same compound, the EC50 (G3 MB (Myc1) cells; 72 h, wash-out, 4th of 4 values listed for the remaining time points (3, 6, 10, 24, 72 h), read-out: EC50, longer exposure) was 1 nM, the EC50 (EP cells) was 50 nM and the fraction unbound [5] was about 1. It also gave a fraction unbound [6] of about 1, a Kp ([7]; mice bearing CPC) of 0.09 ± 0.04 and a Kp ([7]; mice bearing EP) of 0.18 ± 0.14. The Kp ([7]; mice bearing G3 MB) was 0.06 ± 0.02, the “Ki67 % of positive cells” value (CPC tumors [8]; 3 hr after IP injection of FdCyd + THU, vehicle 59.03) was 47.82% and the “Ki67 % of positive cells” value (CPC tumors [8]; 8 hr after IP injection of FdCyd + THU, vehicle 62.25) was 23.4%. For the same compound, the “Ki67 % of positive cells” value (CPC tumors [8]; 24 hr after IP injection of FdCyd + THU, vehicle 53.18) was 61.3%, the “Caspase-3 % of positive cells” value (EP tumors; 3 hr after IP injection of FdCyd + THU, vehicle 0.9975) was 1.416% and the “Caspase-3 % of positive cells” value (EP tumors; 8 hr after IP injection of FdCyd + THU, vehicle 1.110) was 1.210%. The “Caspase-3 % of positive cells” value (EP tumors; 24 hr after IP injection of FdCyd + THU, vehicle 1.427) was 1.030%, the “Caspase-3 % of positive cells” value (CPC tumors [9]; 3 hr after IP injection of FdCyd + THU, vehicle 3.963) was 10.63% and the “Caspase-3 % of positive cells” value (CPC tumors [9]; 8 hr after IP injection of FdCyd + THU, vehicle 4.917) was 2.297%. For the same compound, the “Caspase-3 % of positive cells” value (CPC tumors [9]; 24 hr after IP injection of FdCyd + THU, vehicle 3.493) was 6.797%.
